Patent US6964856B2, “Animal models and methods for sepsis” (priority 1999, dated 2005)

Tested on: luminescent Pseudomonas aeruginosa
Assay: LD50 of luminescent Pseudomonas aeruginosa in mice, effect of anesthesia or adjuvant on virulence
Format: in vivo
Conditions: Ketamine-sedated mice; non-anesthetized mice: approximately 2.5×10^6 CFU
Description: One of the factors typically determined in the calibration process is a suitable dose of pathogen for the selected model system of sepsis. This dose is preferably based on the LD50 of the pathogen in the particular animal model of sepsis being used. The LD50, or “Lethal Dose 50”, is a measure for quantifying the effects of a perturbation (e.g., a test compound, procedure, or bacterial infection) on a biological system. It represents the 50% mortality point—that is, the concentration or level of a particular perturbation at which half of the animals die by the end of the experiment.
The LD50 may change depending on the experimental parameters. The measure is therefore expressed as an LD50 for a given experimental system. By way of example, it was discovered in the course of experiments performed in support of the present invention that the type of anesthesia used to prepare the animals for imaging can have a significant effect on the LD50. Specifically, it was discovered that anesthesia induced by injectable Ketamine may potentiate the virulence of some pathogens.
For example, it was found during experiments performed in support of the present invention that pathogen virulence is boosted by administration of 5% (by volume) hog gastric mucin to the host. […]

CNC1(c2ccccc2Cl)CCCCC1=O (stereo not shown) [Ketamine]
LD50 of luminescent Pseudomonas aeruginosa: ~4.6×10^5 CFU
